Assay results: patent US5481003A, “Protein kinase C inhibitors” (Eli Lilly and Company, priority 1994, dated 1996)
Entries after “also recorded” stand apart in the source; their conditions may differ. Like-named read-outs stand apart in the source and are kept apart here. Each block holds one molecule with its values, some of them ahead of it.

Columns and labels:
protein kinase C eta = protein kinase C eta (Homo sapiens, UniProt P24723); assay: PKC Enzyme Assay, eta isozyme; type: biochemical; conditions: 30 μM ATP, 30° C., 10 minutes
Method: (§1) PKC enzymes=alpha, beta 1, beta II, gamma, delta, epsilon, eta and zeta.
(§2) Assay components in a total volume of 250 μL are the following:
(§3) Vesicles consisting of 120 μg/mL phosphatidylserine (Avanti Polar Lipids)and sufficient diacylglycerol (Avanti Polar Lipids) to activate the enzyme to maximum activity in 20 mM HEPES buffer (Sigma, St. Louis, Mo.), pH 7.5, 940 μM calcium chloride (Sigma, St. Louis, Mo.) for assaying the alpha, beta I, beta II and gamma enzyme only, 1 mM EGTA for all the enzymes, 10 mM magnesium chloride (Sigma, St. Louis, Mo.) and 30 μM (gamma-32P) ATP (DuPont). For all the enzymes either histone type HL (Worthington) or myelin basic protein is used as substrate. The assay is started by addition of protein kinase C enzyme incubated at 30° C. for 10 minutes and stopped by adding 0.5 mL of cold trichloroacetic acid (Amresco) followed by 100 μL of 1 mg/mL bovine serum albumin (Sigma, St. Louis, Mo.). The precipitate is collected by vacuum filtration on glass fiber filters employing a TOMTEC™ filtration system and quantified by counting in a beta scintillation counter.

protein kinase C gamma = protein kinase C gamma (Homo sapiens, UniProt P05129); assay: PKC Enzyme Assay, gamma isozyme; type: biochemical; conditions: 30 μM ATP, 30° C., 10 minutes
Method: as §1, §2, §3

protein kinase C delta = protein kinase C delta (Homo sapiens, UniProt Q05655); assay: PKC Enzyme Assay, delta isozyme; type: biochemical; conditions: 30 μM ATP, 30° C., 10 minutes
protein kinase C alpha = protein kinase C alpha (Homo sapiens, UniProt P17252); assay: PKC Enzyme Assay, alpha isozyme; type: biochemical; conditions: 30 μM ATP, 30° C., 10 minutes
Method: as §1, §2, §3

protein kinase C zeta = molecular target: T1, protein kinase C zeta (Homo sapiens, UniProt Q05513); assay: PKC Enzyme Assay, zeta isozyme; type: biochemical; conditions: 30 μM ATP, 30° C., 10 minutes
T1 sequence (Q05513 1-592): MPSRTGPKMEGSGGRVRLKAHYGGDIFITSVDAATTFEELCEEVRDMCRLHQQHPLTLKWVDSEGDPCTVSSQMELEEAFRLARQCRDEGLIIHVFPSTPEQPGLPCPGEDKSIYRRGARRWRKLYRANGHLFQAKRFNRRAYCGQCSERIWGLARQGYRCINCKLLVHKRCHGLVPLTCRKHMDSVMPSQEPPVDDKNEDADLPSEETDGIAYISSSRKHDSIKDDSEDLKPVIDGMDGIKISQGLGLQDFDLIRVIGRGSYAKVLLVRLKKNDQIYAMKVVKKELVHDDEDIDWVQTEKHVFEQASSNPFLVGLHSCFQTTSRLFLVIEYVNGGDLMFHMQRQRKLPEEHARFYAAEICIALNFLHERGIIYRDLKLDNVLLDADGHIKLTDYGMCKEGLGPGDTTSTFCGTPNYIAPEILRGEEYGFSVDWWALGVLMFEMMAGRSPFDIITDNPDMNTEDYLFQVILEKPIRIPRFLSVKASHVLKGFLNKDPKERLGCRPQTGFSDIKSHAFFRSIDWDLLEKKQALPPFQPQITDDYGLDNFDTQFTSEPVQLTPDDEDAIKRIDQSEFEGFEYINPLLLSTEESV
Method: as §1, §2, §3

protein kinase C epsilon = molecular target: T2, protein kinase C epsilon (Homo sapiens, UniProt Q02156); assay: PKC Enzyme Assay, epsilon isozyme; type: biochemical; conditions: 30 μM ATP, 30° C., 10 minutes
T2 sequence (Q02156 1-737): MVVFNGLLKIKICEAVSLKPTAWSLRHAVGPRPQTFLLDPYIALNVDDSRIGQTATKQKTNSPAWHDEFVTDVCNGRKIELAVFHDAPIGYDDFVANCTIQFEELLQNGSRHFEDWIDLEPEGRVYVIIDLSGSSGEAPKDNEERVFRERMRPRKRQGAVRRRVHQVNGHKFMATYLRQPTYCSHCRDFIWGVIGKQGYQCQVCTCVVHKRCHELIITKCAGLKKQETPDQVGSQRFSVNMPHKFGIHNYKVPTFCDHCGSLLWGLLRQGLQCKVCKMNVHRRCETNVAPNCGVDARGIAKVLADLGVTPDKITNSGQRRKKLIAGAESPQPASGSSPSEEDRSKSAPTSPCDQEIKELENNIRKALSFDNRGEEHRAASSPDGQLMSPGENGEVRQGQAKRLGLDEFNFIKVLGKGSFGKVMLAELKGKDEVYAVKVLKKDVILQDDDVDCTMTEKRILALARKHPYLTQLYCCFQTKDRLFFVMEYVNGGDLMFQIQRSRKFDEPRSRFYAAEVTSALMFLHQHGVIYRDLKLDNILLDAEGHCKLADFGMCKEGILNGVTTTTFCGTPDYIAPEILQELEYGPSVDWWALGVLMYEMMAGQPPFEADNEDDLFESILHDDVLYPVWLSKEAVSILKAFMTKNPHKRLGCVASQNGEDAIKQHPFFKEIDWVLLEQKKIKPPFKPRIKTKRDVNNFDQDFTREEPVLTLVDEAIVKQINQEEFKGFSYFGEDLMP
Method: as §1, §2, §3

protein kinase C beta-2 = protein kinase C beta-2 (Homo sapiens, UniProt P05771); assay: PKC Enzyme Assay, beta-2 isozyme; type: biochemical; conditions: PKC beta-2; 30 μM ATP, 30° C., 10 minutes; read-out: IC50 β2
Method: as §1, §2, §3

protein kinase C beta-1 = protein kinase C beta-1 (Homo sapiens, UniProt P05771); assay: PKC Enzyme Assay, beta-1 isozyme; type: biochemical; conditions: PKC beta-1; 30 μM ATP, 30° C., 10 minutes; read-out: IC50 β1
Method: as §1, §2, §3

PKC isozymes = conditions: cited from earlier work

Sequence of protein kinase C eta (P24723 whole entry): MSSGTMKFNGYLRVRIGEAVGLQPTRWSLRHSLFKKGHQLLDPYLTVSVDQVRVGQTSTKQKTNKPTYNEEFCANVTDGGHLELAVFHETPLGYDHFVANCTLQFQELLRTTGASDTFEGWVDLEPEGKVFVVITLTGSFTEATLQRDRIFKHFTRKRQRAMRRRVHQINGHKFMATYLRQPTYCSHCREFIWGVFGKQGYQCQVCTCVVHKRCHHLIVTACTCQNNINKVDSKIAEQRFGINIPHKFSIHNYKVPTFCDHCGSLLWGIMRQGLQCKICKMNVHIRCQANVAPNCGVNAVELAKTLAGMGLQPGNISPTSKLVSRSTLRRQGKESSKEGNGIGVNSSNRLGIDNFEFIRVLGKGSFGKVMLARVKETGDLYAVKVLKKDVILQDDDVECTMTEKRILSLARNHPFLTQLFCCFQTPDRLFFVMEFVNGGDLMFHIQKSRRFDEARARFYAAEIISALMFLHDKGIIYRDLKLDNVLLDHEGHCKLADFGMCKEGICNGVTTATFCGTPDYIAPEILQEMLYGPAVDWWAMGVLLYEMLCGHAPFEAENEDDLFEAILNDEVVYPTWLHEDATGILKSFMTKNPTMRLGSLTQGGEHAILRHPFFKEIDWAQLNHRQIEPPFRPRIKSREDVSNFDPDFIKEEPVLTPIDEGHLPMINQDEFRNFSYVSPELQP
Sequence of protein kinase C beta-1 (P05771 whole entry): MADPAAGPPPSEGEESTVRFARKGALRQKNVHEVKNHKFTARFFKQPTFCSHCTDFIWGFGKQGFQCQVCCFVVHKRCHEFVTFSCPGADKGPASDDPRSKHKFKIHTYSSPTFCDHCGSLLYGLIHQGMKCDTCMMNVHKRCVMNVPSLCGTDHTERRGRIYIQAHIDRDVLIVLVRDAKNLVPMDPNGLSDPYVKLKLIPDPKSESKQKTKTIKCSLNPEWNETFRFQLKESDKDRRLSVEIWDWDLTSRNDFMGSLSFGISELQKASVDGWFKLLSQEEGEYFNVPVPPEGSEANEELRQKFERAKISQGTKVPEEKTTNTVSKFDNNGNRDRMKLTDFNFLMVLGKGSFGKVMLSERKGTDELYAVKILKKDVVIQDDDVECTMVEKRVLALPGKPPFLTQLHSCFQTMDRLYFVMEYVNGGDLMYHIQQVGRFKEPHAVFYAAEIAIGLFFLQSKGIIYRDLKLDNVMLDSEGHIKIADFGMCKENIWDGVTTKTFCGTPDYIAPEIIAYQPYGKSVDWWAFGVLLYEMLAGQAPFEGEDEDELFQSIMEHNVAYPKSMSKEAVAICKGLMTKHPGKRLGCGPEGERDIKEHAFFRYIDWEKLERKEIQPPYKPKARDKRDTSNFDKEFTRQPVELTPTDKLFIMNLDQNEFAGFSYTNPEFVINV
Sequence of protein kinase C delta (Q05655 whole entry): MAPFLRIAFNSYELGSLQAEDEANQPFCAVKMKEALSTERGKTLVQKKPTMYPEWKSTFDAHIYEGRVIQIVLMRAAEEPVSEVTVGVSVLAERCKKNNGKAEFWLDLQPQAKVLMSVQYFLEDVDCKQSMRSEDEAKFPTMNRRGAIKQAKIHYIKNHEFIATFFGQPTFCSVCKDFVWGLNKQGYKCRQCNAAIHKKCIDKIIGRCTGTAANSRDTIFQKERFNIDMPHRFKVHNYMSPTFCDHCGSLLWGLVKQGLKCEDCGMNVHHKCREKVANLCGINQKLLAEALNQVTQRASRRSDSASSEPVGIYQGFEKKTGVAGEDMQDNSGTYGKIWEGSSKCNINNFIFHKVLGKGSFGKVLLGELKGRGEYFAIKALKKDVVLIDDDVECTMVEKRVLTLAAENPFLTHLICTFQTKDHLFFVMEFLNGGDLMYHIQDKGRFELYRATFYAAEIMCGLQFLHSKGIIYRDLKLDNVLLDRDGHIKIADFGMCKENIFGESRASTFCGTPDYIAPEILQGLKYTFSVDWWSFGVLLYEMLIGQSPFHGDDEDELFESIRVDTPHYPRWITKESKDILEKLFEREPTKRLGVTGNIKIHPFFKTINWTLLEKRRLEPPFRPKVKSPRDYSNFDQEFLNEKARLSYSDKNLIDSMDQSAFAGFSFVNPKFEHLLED
Sequence of protein kinase C beta-2 (P05771 1-673 isoform P05771-2): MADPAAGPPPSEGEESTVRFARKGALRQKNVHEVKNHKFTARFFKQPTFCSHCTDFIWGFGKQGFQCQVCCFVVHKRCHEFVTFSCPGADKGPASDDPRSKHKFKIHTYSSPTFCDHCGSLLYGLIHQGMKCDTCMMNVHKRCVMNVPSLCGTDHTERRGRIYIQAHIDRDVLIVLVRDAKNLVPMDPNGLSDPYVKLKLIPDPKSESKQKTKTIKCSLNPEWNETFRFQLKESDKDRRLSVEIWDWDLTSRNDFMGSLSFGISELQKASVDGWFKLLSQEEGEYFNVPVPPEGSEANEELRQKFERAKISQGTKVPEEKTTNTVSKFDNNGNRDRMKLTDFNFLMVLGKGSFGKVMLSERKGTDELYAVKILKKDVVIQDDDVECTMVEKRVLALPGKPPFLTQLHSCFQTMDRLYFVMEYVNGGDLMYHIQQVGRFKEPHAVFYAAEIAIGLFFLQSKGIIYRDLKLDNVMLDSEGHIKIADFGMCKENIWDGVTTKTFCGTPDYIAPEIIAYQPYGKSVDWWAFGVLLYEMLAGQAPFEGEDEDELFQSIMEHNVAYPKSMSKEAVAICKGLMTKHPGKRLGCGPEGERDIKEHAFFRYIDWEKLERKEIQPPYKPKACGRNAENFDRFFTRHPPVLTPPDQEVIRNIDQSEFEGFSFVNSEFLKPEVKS

IC50 (protein kinase C eta): 0.37 µM
IC50 (protein kinase C gamma): 2.6 µM
IC50 (protein kinase C delta): 2.9 µM
IC50 (protein kinase C alpha): 2.3 µM
IC50 (protein kinase C zeta): 45 µM
IC50 (protein kinase C epsilon): 6.1 µM
IC50 (protein kinase C beta-2): 0.04 µM
IC50 (protein kinase C beta-1): 0.15 µM
SMILES: CN(C)CCCn1cc(C2=C(c3cn(C(=O)CNC(=O)OC(C)(C)C)c4ccccc34)C(=O)NC2=O)c2ccccc21 [Example 2, 3-[1-(3-N,N'-dimethylaminopropyl)-3-indolyl]-4-[(1-N-^t BOC)-glycine-3-indolyl]-1H-pyrrol-2,5-dione]

IC50 (protein kinase C beta-1): 1 µM
SMILES: CC(C)(C)OC(=O)N[C@@H](Cc1ccccc1)C(=O)n1cc(C2=C(c3cn(C(=O)[C@H](Cc4ccccc4)NC(=O)OC(C)(C)C)c4ccccc34)C(=O)NC2=O)c2ccccc21 [Example 3, 3,4-Bis[(1-N-^t BOC)-phenylalanine-3-indolyl]-1H-Pyrrol-2,5-dione]

IC50 (protein kinase C eta): 2.6 µM
SMILES: CC(C)(C)OC(=O)NCC(=O)n1cc(C2=C(c3cn(CCCN=[N+]=[N-])c4ccccc34)C(=O)NC2=O)c2ccccc21 [Example 1, 3-[1-(3-azidopropyl)-3-indolyl]-4-[(1-N-^t BOC )-glycine-3indolyl]-1H-pyrrol-2,5-dione]

SMILES: CN(C)CCCn1cc(C2=C(c3c[nH]c4ccccc34)C(=O)NC2=O)c2ccccc21 [3-[1-(3-dimethylaminopropyl)-indol-3-yl]-4-(1H-indol-3-yl)-1H-pyrrole-2,5-dione]
isozyme selectivity (PKC isozymes; Martiny-Baron, et al., J. Biol. Chem. 268:9194-9197 (1993)): slight selectivity for isozymes, alpha and beta versus delta, epsilon, and zeta; also recorded: no differences in the selectivity between alpha and beta-1 isozymes
isozyme selectivity (PKC isozymes; Toullec et al., J. Biol. Chem. 266:15771-15781 (1991)): slight selectivity for the calcium dependent isozymes; also recorded: no isozyme selectivity between alpha, beta-1, beta-2, and gamma
